According to US9157909B2, “Male reproductive health panel and uses thereof” (priority 2007, dated 2015):
Like-named read-outs stand apart in the source and are kept apart here.

What was measured:
sperm [1] = settings: sperm exposed to hydroxylamine, analyzed in the HSAA; cited from earlier work
human sperm [2] = test: HSAA of sperm exposed to ROS from PMA-activated PMNL with or without Trolox; format: cell-based
Method: PMNLs were isolated from blood of healthy donors by density gradient centrifugation. Activation and the number of peroxidase-positive leukocytes were determined using the Endtz test. Sperm from fertile males were isolated using percoll gradients (40 and 80%). Sperm from the 80% fraction was divided into 6 aliquots: 1) control non-treated sperm, 2) sperm treated with ROS inducer phorbol-12 myristate-13 acetate (PMA), 3) non-treated sperm with non-treated PMNL, 4) sperm with PMA treated PMNL, 5) sperm with PMA treated PMNL plus Trolox 40 μM, and 6) non-treated sperm plus Trolox 40 μM. Following an incubation period, sperm were evaluated for (A) sperm activation events in the HSAA, evaluating sperm activation events (decondensation, DNA synthesis, and recondensation) at 15 min, and 2 hr, and (B) determining ROS levels via nitroblue of tetrazolium (NBT) and spectrophotometry.

human sperm [3] = settings: for sperm heavily labeled by ^3H-TTP incorporation: incubation not printed (15 min implied)
Method: FIG. 3: HSAA—The effect of oxidative stress on DNA synthesis. Pictorial representation of autoradiographs of control untreated sperm (A-E) and sperm exposed to 100 μM H2O2 for 1 hr (a-e) assayed in the HSAA in the presence of ^3H-TTP. All the pictures were photographed using bright microscopy 60× objective. […] All pictures were printed at the same magnification.
(§1) In vitro oxidative stress exposure; human sperm from a fertile […] were exposed to increasing hydrogen peroxide (H2O2) concentrations (0, 10, 50 and 100 μM), and incubated at 37° C., for 15 min and 1 hr.
(§2) Sperm was isolated from the seminal plasma as previously described in Brown et al. 1995. The sperm pellet was resuspended in phosphate buffered saline (PBS), pH=7.4, and divided into 4 aliquots. Each aliquot (equal sperm concentrations) was incubated at 37° C. in PBS with H2O2 concentrations of 0, 10, 50, and 100 μM for 15 min and 1 hr. All aliquots were divided into 2 portions. One portion was used to determine LPO.
(§3) The remaining portion was centrifuged at 1500 g for 15 min at room temperature. The pellet was analyzed in the HSAA.

sperm [4] = settings: comet assay, direct exposure of sperm; cited from earlier work
human sperm [5] = tested on: human sperm
Method: as §1, §2, §3
Sperm chromatin decondensation and nuclear recondensation were evaluated in sperm exposed to increasing concentrations of H2O2 for 15 min and 1 hr using the HSAA. Sperm were analyzed at different incubation times in the egg extract using the image analysis Methamorph software system. The sperm nuclear activation was scored in 5 categories: 1) full decondensation: sperm diameter 25-30 μm, 2) partial decondensation: sperm diameter<25 μm, 3) non-decondensed, 4) hyperdecondensed: sperm diameter>(25-30 μm), and full recondensation.

human sperm [6] = settings: 50 and 100 μM H2O2 (15 min); 10, 50 and 100 μM H2O2 (1 hr)
Method: as §2

[7] = Trolox 40 μM with PMA treated PMNL (oxidative stress)

NO [hydroxylamine]
onset of DNA synthesis (sperm [1]): early initiation of DNA synthesis | sperm decondensation response (sperm [1]): minimal decondensation

Cc1c(C)c2c(c(C)c1O)CCC(C)(C(=O)O)O2 (stereo not shown) [Trolox, 6-Hydroxy-2,5,7,8-tetramethylchroman-. 2-carboxylic acid]
decondensation response (human sperm [2]; [7]): improved responses in decondensation | early ^3H-TTP incorporation (human sperm [2]; [7]): no early ^3H-TTP incorporation | sperm having recondensed chromatin (human sperm [2]; Trolox 40 μM with PMA treated PMNL, 2 hr time point, only 57% without Trolox): 78%

OO [H2O2, hydrogen peroxide]
^3H-TTP incorporation (autoradiography) (human sperm [3]; 10 μM H2O2, 15 min and 1 hr exposure, 2 and 3 hr incubations in egg extract): normal ^3H-TTP incorporation | ^3H-TTP incorporation (autoradiography) (human sperm [3]; 10 μM H2O2, 15 min and 1 hr exposure, 5 and 15 min incubations in egg extract): no incorporation of ^3H-TTP | heavily labeled sperm (^3H-TTP) (human sperm [3]; 10 μM H2O2, 15 min and 1 hr exposures, 3 hr incubation in egg extract): 98±2% | sperm positive for ^3H-TTP incorporation (human sperm [3]; 10 μM H2O2, 15 min and 1 hr exposures, incubation time not printed (15 min in egg extract implied)): No sperm were positive | sperm positive for ^3H-TTP incorporation (human sperm [3]; 10 μM H2O2, 5 min incubation in egg extract per heading (sentence prints 15 min extract incubation)): No sperm were positive | sperm heavily labeled by ^3H-TTP incorporation (human sperm [3]; 50 μM H2O2, 15 min exposure): 10±2% | sperm heavily labeled by ^3H-TTP incorporation (human sperm [3]; 100 μM H2O2, 15 min exposure): 50±5% | onset of DNA synthesis (autoradiograph, FIG. 3b) (human sperm [3]; 100 μM H2O2, 1 hr exposure, 5 min incubation in egg extract): early initiation of DNA synthesis | onset of DNA synthesis (autoradiograph, FIG. 3c) (human sperm [3]; 100 μM H2O2, 1 hr exposure, 15 min incubation in egg extract): early initiation of DNA synthesis | sperm heavily labeled by ^3H-TTP incorporation (human sperm [3]; 100 μM H2O2, 1 hr exposure): 45±9% | ^3H-TTP incorporation (autoradiography) (human sperm [3]; 50 and 100 μM H2O2, 15 min and 1 hr exposure): abnormal ^3H-TTP incorporation | H2O2 concentration at which induction of DNA fragmentation was significant (sperm [4]): 200 µM | hyper-decondensed sperm (human sperm [5]; 10 μM H2O2, 2 and 3 hr incubation in egg extract (results combined)): No sperm were hyper-decondensed | recondensation appearance (FIG. 3d, e) (human sperm [5]; 100 μM H2O2, 1 hr exposure, 2 and 3 hr incubation in egg extract): irregular recondensation | recondensed sperm (human sperm [5]; 10 and 50 μM H2O2, 15 min exposure, 15 min incubation in egg extract): No recondensed sperm were observed | non-decondensed sperm (human sperm [5]; other concentrations (50 and 100 μM H2O2), any exposure time point, 15 min incubation in egg extract): no sperm were non-decondensed | LPO (amount of MDA and hydroxyalkenals), means compared to untreated control sperm (human sperm [6]): significantly different
